The record followed here is EP1094724B1, “USE OF A PHENOL OXIDISING ENZYME IN THE TREATMENT OF TOBACCO” (priority 1998, dated 2000).

Assay [1] addresses T1, laccase derived from Trametes villosa, TvL (Trametes villosa, UniProt Q99044).
T1 construct: purchased Novo Nordisk A/S
T1 sequence (Q99044 22-520): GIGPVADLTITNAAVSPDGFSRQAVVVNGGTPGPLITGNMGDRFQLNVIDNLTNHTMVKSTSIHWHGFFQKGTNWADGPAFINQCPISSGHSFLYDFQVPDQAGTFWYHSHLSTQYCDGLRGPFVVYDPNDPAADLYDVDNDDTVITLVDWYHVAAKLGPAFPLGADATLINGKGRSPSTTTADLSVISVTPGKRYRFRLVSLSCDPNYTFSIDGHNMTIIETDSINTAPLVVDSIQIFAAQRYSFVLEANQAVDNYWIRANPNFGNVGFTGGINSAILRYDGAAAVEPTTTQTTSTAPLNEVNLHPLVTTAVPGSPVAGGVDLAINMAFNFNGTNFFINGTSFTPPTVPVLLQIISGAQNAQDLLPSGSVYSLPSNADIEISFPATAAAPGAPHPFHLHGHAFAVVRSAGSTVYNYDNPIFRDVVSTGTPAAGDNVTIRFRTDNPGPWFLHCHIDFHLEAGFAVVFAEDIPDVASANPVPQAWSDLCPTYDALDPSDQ
The experiment in a line: Effect of laccase on tobacco constituents, UV/Vis spectra before and after treatment (Example 1). The assay is classed as biochemical. To be noted: 9 mM Na-acetate buffer pH 5.0; 4.8% Ethanol; 0.025 mg/ml of tobacco constituent; 0.016 mg/ml laccase; spectra 190-700 nm every 20 seconds for 5 minutes. On the procedure:
Tobacco constituents: Nicotine, Chlorogenic acid, Rutin and Scopoletin. Enzyme: Purified laccase derived from Trametes villosa, TvL. Apparatus: HP8452 UV/Vis diode array spectrophotometer, 1 cm quarts cuvette. Buffer: Sodium acetate (Merck)
10 mM acetate buffer was prepared from sodium acetate adjusted to pH 5.0 with sulphuric acid. Stock solution of 0.50 mg/ml in 96% ethanol was prepared of nicotine, chlorogenic acid, rutin, and scopoletin. A stock solution of 0.31 mg enzyme protein/ml of laccase in de-mineralised water was prepared. The HP diode array spectrophotometer was operated as per the manufacturer's instructions. A 1 cm quartz cuvette was used. As a blank was used 950µl buffer mixed with 50µl 96% ethanol. In a 1 cm quart cuvette was mixed 900µl 10 mM acetate buffer and 50µl of the stock solution of the compound in question. A spectrum of the "native" compound was recorded in the range 190-700 nm. 50µl of TvL stock solution was added and carefully mixed, and spectra in the range 190-700 nm were recorded every 20 seconds for 5 minutes.

For assay [2], the target named is T2, Trametes villosa laccase (TvL) (Trametes villosa, UniProt Q99044).
T2 construct: purchased Novo Nordisk A/S
T2 sequence (Q99044 22-520): T1 sequence (Q99044 22-520)
The experiment in a line: Laccase TvL treatment of tobacco extract, HPLC analysis of phenolic compounds (peak area). Format: biochemical. Particulars: for % Remaining (peak area) after various treatment times: intensive, submerse aeration; for % Remaining (peak area) after 75 minutes / % Remaining (peak area) after 240 minutes: 1.6 µg/ml TvL, ambient temperature (approximately 20°C), surface aeration. The protocol: The content of phenolic compounds is analysed by HPLC according to the procedure described below: • Liquid chromatographic system: E.g. Shimadzu SCL-6B System Controller, and two LC-6A Liquid Chromatograph (pumps) or Waters model 600 E • Injector: Shimadzu SIL 6B Autoinjector or Waters 715 Ultra Wisp. UV detector: Shimadzu SPD-6A Photodiode Array UV-VIS detector or Waters Model 481 • Software: CLASS LC10 / CLASS-MXA or Maxima 820 • Column: Supelcosil™ LC-18 25 cm x 4.6 mm (Supelco, #5-8298) or µ Bondapack C198 stainless steel column, 30 cm x 4 mm i.d., 10 µm particle size. • Guard column: none or Guard-Pak from Waters packed with the same material. • Temperature: Ambient • Mobile phase flow: 1.3 ml/min • Injection volume: 20µl • Wavelength: 350 nm • Eluent: Binary gradient (linear) mixture of A: KH2PO4 (28.4 g in 2000 ml de-mineralised water) and B: methanol (please see table 1 and figure 1). The eluent is filtered through a 0.45 µm filter and degassed before use.
Prior to HPLC analysis, the samples were filtered through a 0.45 µm filter or smaller, e.g. a sterile Sartorius Minisart 0.45 µm filter (#16555) or a Millipore Millex-GS 0.22 µm (#SBGS 0 25 SB) to remove the haze/precipitate normally formed during enzyme treatment. Normally, no dilution of the extract/sample was made before HPLC analysis.
For qualitative and semi-quantitative measurements, each of the standards was dissolved in 96% ethanol, and then mixed in a ratio and at a concentration which was within the range in the tobacco extract. For semi-quantification of the phenolic compounds in the tobacco extract, and as a measure of development in concentration of the various compounds contained in the extract, decrease in peak area relative to the peak area before addition of enzyme was used. As a measure of overall efficiency of the process, degree of reduction in total peak area of all peaks (not only the major ones) in the HPLC chromatogram with retention time Rt>3 min was used (named: "All peaks").
Unless otherwise indicated, the tobacco was extracted at a laboratory scale with water according to the following procedure: 1000 ml demineralised water is heated to 45°C. 30 g tobacco (approx. 25 g d.m.) is added and the mixture stirred by a magnetic bar and occasionally with a stick. After 15 minutes the tobacco residue is separated from the tobacco extract by vacuum filtration (Whatman glass micro fibre GF/F 11 cm). The filtered extract is then vacuum filtered at least once more or until it is completely clear. Yield was around 900 ml tobacco extract. […] No buffer was thus included in any of the trials. D.m. content of the extract was approximately 2.1%.
Tobacco extract (typically 50-100 ml) was poured into a glass beaker and a magnetic bar was added. No pH adjustments were made, and no buffer was added. The tobacco extract was heated to and controlled at 55°C during the entire enzyme treatment by means of a heating plate and a thermostat. Intensive submerse aeration was applied by blowing atmospheric air into the extract by means of a metal sinter (metal suction filter normally used for HPLC). The enzyme in question (TvL or PpL) was added to the desired concentration. Shortly after addition of laccase, the colour of the tobacco extract turned dark brown to black, and with time the liquor became turbid and a precipitate formed. The liquor was sampled with intervals for HPLC analysis.
Enzyme treatment: Surface aeration was used. TvL enzyme was added to the tobacco extract to a concentration of approximately 1.6 µg/ml. […] HPLC chromatograms of the tobacco extract before, during, and after enzyme treatment as well as chromatograms of the mixture of HPLC standards are shown in figure 6, 7, ,8, and 9.
Enzyme treatment: pH of the extract was adjusted with H2SO4 or NaOH to pH 4, pH 5, pH 6, or pH 7. The extract was kept at ambient temperature (approximately 20°C) during the entire enzyme treatment. Surface aeration was used. […]

For `CN1CCCC1c1cccnc1` (stereo not shown) [Nicotine], the “spectral changes (peak position and peak relative height)” value in assay [1] is given as “No spectral changes”.
`C[C@@H]1O[C@@H](OC[C@H]2O[C@@H](Oc3c(-c4ccc(O)c(O)c4)oc4cc(O)cc(O)c4c3=O)[C@H](O)[C@@H](O)[C@@H]2O)[C@H](O)[C@H](O)[C@H]1O` [R, rutin]: the “% Remaining (peak area) after various treatment times” value in assay [2] (40 Min, approximately 1.6 µg/ml TvL at 55°C and pH 5.4) is 20%; in assay [2] (40 Min, approximately 7.8µg/ml TvL at 55°C and pH 5.4), 0%; in assay [2] (80 Min, approximately 1.6 µg/ml TvL at 55°C and pH 5.4) it was 0%; in assay [2] (120 Min, approximately 1.6 µg/ml TvL at 55°C and pH 5.4) it was 0%. The “% Remaining (peak area) after 75 minutes” value is reported as 44% in assay [2] (pH 4), 29% in assay [2] (pH 5), 14% in assay [2] (pH 6) and 87% in assay [2] (pH 7). The “% Remaining (peak area) after 240 minutes” value in assay [2] (pH 4) turned out to be 0%; in assay [2] (pH 5), 0%; in assay [2] (pH 6) it was 0%; in assay [2] (pH 7), 63%.
